Marks after values point to notes of the source that are not given here.
How the values were obtained:
[1] = tested on: mold; test: Modified ASTM-G21 mold resistant test on fungicide-infused Kraft paper; type: cell-based; conditions: single active infused in Kraft paper; pass = mold resistant rating of 0 or 1; Trichoderma virens omitted from spore inocula
Description: In this example unbleached Kraft paper (brown wrapping paper (density 0.0091 g/cm2) is infused with DIMTS, carbendazim (BCM) and chlorothalonil (CTL) over a broad concentration range. In addition, paired combinations as well as all 3 actives combined are also infused into Kraft paper samples. Infusion of fungicide into paper is conducted by first dissolving the technical actives in a volatile solvent followed by addition of 1 mL of a working stock solution onto the surface of the paper to give the appropriate concentration of active(s) in mg/kg paper. The solvent completely saturates the paper. In order to prevent solvent from leaching through paper onto container, the paper is supported with a Viton O-ring. The solvent saturated paper samples are allowed to dry in a chemical fume hood precipitating the fungicides within the paper. Chemical analyses of fungicide actives in the paper samples confirms that this infusion technique produces >90% incorporation efficiency based on target concentrations. Standard mold resistant tests are performed on duplicate sub samples from each paper infusion sample. A modified ASTM-G21 is the standard mold resistant test used for performance evaluation. Synergy indices are calculated for all combinations of actives using a mold resistant rating of 0 or 1 as the passing criteria for performance. Synergy calculations are made according to the following standard equation:
SI=(Ca/CA)+(Cb/CB) 2 combination tests
SI=(Ca/CA)+(Cb/CB)+(Cc/CC) 3 combination tests
Ca is the lowest concentration of component A in combination with other active(s) required to pass test criteria;
CA is the lowest concentration of component A alone required to pass test criteria;
Cb is the lowest concentration of component B in combination with other active(s) required to pass test criteria;
CB is the lowest concentration of component B alone required to pass test criteria;
Cc is the lowest concentration of component C in combination with other active(s) required to pass test criteria; and
CC is the lowest concentration of component C alone required to pass test criteria. […]

[2] = cited from earlier work

SMILES | PPM (active), lowest concentration of component alone required to pass test criteria [1] | Water solubility [2]
COC(=O)Nc1nc2ccccc2[nH]1 [BCM, methyl 2-benzimidazolecarbamate] | 1200 PPM | –
N#Cc1c(Cl)c(Cl)c(Cl)c(C#N)c1Cl [CTL, 1,3-dicyano-tetrachlorobenzene] | > 1000* PPM | –
Cc1ccc(S(=O)(=O)C(I)I)cc1 [DIMTS, diiodomethyltolylsulfone] | 4000 PPM | water insoluble
